IC50 data for 3 compounds are collected here from ChEMBL document CHEMBL2073835, “Apical uptake of organic cations by human intestinal Caco-2 cells: putative involvement of ASF transporters” (Naunyn Schmiedebergs Arch Pharmacol, 2001).

pIC50: −log10 of the molar value.

The test has as its target T1, Solute carrier family 22 member 3 (Homo sapiens, UniProt O75751).
T1 sequence (O75751 whole entry): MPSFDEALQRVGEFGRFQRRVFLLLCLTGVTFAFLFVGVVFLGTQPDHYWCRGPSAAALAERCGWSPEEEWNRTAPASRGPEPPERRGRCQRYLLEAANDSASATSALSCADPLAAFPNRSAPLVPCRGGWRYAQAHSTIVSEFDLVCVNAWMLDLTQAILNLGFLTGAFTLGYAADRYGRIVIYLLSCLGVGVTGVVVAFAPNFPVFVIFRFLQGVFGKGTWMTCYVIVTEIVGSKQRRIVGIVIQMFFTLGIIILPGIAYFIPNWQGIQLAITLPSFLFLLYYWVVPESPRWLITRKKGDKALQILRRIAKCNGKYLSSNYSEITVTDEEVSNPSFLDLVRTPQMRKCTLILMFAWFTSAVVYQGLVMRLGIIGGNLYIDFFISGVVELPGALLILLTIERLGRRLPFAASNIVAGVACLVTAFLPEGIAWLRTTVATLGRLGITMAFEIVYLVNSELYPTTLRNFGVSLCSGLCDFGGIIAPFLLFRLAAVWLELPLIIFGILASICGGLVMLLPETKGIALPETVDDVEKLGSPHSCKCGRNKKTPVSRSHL
Description: TP_TRANSPORTER: inhibition of MPP+ uptake (MPP+: 0.2 uM) in OCT3-expressing HEK293 cells. The test is classed as functional, cell-based.
The term pIC50 denotes the IC50 on a negative log10 scale, so that one unit is a factor of ten. As for `CC[N+](CC)(CC)CC` [TETRYLAMMONIUM], the pIC50 is 1.99. Take `CC[n+]1c(CC2C=C(C)N=C(c3ccccc3)N2C)ccc2ccccc21` (stereo not drawn) [Cyanine-863]: the pIC50 was 5.75. This pIC50 is 3.76 log units higher than that of the compound before. To `Clc1cccc(Cl)c1N=C1NCCN1` [CLONIDINE] belongs 4.10.
